Assay type in all cases: cell-based
One series concerns VCAM-1. In words: VCAM-1 assay: enzyme immunoassay of TNF-alpha induced VCAM-1 expression in endothelial cells. The following applies: Homo sapiens, Endothelial cell; HAEC stimulated with TNF-alpha (1 ng/ml), about 16 hours with compound; read-out: VCAM-1 IC50 or % inhibition at. The procedure: The VCAM-1 assay is an enzyme immunoassay to detect tumor necrosis factor alpha (TNF-alpha) induced Vascular Cell Adhesion Molecule (VCAM-1) expression in endothelial cells.
(§1) Human aortic endothelial cells (HAEC) were purchased from Clonetics and maintained in EGM media (Clonetics) supplemented with 5% fetal bovine serum (FBS). In a typical experiment, cells were seeded in 96-well plates. The next day cells were stimulated with TNF-alpha (1 ng/ml) purchased from Boehringer Mannheim in the presence or absence of compounds dissolved in dimethylsulphoxide (DMSO). To establish a dose curve for each compound, four concentrations in 2 fold increments were used. Cells were exposed to TNF-α and compounds for approximately 16 hours. The next day, cells were examined under microscope to score for visual signs of toxicity.
Media was discarded and the cells were washed once with Hanks buffered saline solution (HBSS)/phosphate buffered solution (PBS) 91:1). Primary mouse monoclonal antibody against VCAM-1 purchased from Southern Biotechnology Associates (0.25 μg/ml in HBSS/PBS+5% FBS) was added and incubated at 37° C. for 30 minutes. Cells were washed with HBSS/PBS three times, and secondary antibody horse radish peroxidase (HRP)-conjugated goat anti-mouse IgG purchased from Southern Biotechnology Associates (1:500 in HBSS/PBS+5% FBS) was added and incubated at 37° C. for 30 minutes. Cells were washed with HBSS/PBS four times and peroxidase substrate 3.3′,5,5′-tetramethyl-benzidine (TMB) was added and incubated in the dark at room temperature until there was adequate blue color development. The length of incubation time was typically 5-15 minutes. 2 N sulfuric acid was added to stop the color development and the data was collected by reading the absorbance at O.D. 450 nm. The result was expressed as the percentage of control sample (cells stimulated by TNF without any compound).
(§2) The degree of inhibition of various compounds, including the compounds prepared in the foregoing examples, using the assays described in Examples 6-9, are provided in Table IX. Results are expressed in micromolar quantities.

The subject of series [1] is Human aortic endothelial cells (HAEC). In words: LD50 (toxicity to cells; visual signs of toxicity scored in the VCAM-1 assay). Here is the method:
as §1, §2

Another series has as its system ApoB/HepG2. In words: Lipid screen: ApoB ELISA on media of treated HEPG2 cells. The following applies: Homo sapiens; HEPG2 cells treated 24 hours; ApoB accumulation in media as percentage of control; read-out: ApoB/Hep G2 IC50 or % inhibition at. Here is the method: HEPG2 cell was started in 10 ml of MEM, 10% FBS, 1 mM Sodium Pyruvate. The cells were incubated in a tissue culture incubator. The cells were split into 4×96-wells plate in MEM, 10% FBS, 1 mM Sodium Pyruvate and allowed to grow to about 50% confluency and then removed.
The cells were treated with the desired concentration of compounds in 100 μl DMEM, 1% RSA for 24 hours. The compounds are dissolved in DMSO.
On the same day, 4×96-wells NuncImmunoSorb plate is coated with 100 μl of mouse anti-human ApoB monoclonal 1D1 (1:1000 dilution in 1×PBS, pH 7.4). The coating is allowed to stand overnight.
The coated plate is washed 3 times with 1×PBS, pH 7.4, −0.05% Tween 20. 100 μl of the standards is added to the selected wells. ApoB standards are prepared at 6.25, 3.12, 1.56, 0.78, 0.39 ng, and each concentration is done in triplicates.
90 μl of 1×PBS, pH 7.4, −0.05% Tween 20 is added to each well corresponding to the sample. 10 μl of media is transferred from the treated HEPG2 plates to the ApoB ELISA plate. The plate is incubated at room temperature for 2 hours, rocking gently.
Wash the coated plate 3× with 1×PBS, pH 7.4, −0.05% Tween 20. Add 100 μl of sheep anti-human ApoB polyclonal from Boehringer Mannheim. (1:2000 dilution in 1×PBS, pH 7.4, −0.05% Tween 20). Incubate at room temperature for 1 hour, rocking gently. Wash the coated plate 3× with 1×PBS, pH 7.4, −0.05% Tween 20. Add 100 μl of rabbit anti-sheep IgG (1:2000 dilution in 1×PBS, pH 7.4, −0.05% Tween 20). Incubate at room temperature for 1 hour, rocking gently. Wash the coated plate 3× with 1×PBS, pH 7.4, −0.05% Tween 20. Add 100 μl of substrate (10 ml of distilled water, 100 μl of TMB (10 mg/ml), and 1 μl of hydrogen peroxide). Allow color to emerge and stop reaction with 25 ul of 8N sulfuric acid. Wells are read with MicroPlate Reader @ […]. Graph accumulation of ApoB in media as a percentage of control for each sample and their concentration. A determination of IC50 is obtained from the graph.

`CC(C)(Sc1cc(C(C)(C)C)c(O)c(C(C)(C)C)c1)Sc1cc(C(C)(C)C)c(OCC2OC(O)[C@@H](O)[C@H]2O)c(C(C)(C)C)c1` (some centres unmarked): the IC50 with VCAM-1 came to 8 µM.
As for `CC(C)(Sc1cc(C(C)(C)C)c(O)c(C(C)(C)C)c1)Sc1cc(C(C)(C)C)c(OCC(O)COC(=O)C(O)C(O)C(O)C(O)CO)c(C(C)(C)C)c1` (centres unmarked), the IC50 with VCAM-1 was 7 µM; in the series on ApoB/HepG2, 30 µM. The “LD50 at” value in series [1] came out at 50.0 µM.
For `CN(C)C(=O)c1ccc(CSc2cc(C(C)(C)C)c(O)c(C(C)(C)C)c2)cc1`, in that order: 12.5 µM, 85 µM and 50.0 µM.
For `CCN(CC)C(=O)c1ccc(CSc2cc(C(C)(C)C)c(O)c(C(C)(C)C)c2)cc1`, the IC50 with VCAM-1 came to 12.5 µM; with ApoB/HepG2, 40 µM.
As for `CC(C)(Sc1cc(C(C)(C)C)c(O)c(C(C)(C)C)c1)Sc1cc(C(C)(C)C)c(OC[C@@H](O)[C@@H](O)[C@@H](O)CO)c(C(C)(C)C)c1`, the IC50 in the series on VCAM-1 was 12.5 µM; with ApoB/HepG2 it was 6 µM. In addition, the “LD50 at” value in series [1] stood at 25.0 µM.
Take `CC(C)(Sc1cc(C(C)(C)C)c(O)c(C(C)(C)C)c1)Sc1cc(C(C)(C)C)c(OCC(O)CS(=O)(=O)O)c(C(C)(C)C)c1` (centres unmarked): the IC50 in the series with VCAM-1 was found to be 10 µM. In addition, the “LD50 at” value in series [1] was determined as 50.0 µM.

Values taken from US20050171028A1, “Thioketals and thioethers for inhibiting the expression of VCAM-1” (Atherogenics Pharmaceuticals, Inc., priority 2000, published 2005).
